According to patent US9212130B2, “Heterocyclic derivative and pharmaceutical composition comprising the same” (SHIONOGI & CO., LTD., priority 2010, dated 2015):

Target: human P2X3 receptor (Homo sapiens (Human), UniProt P56373)
Experiment: Evaluation of human P2X3 receptor inhibitory activity (ATP-induced Fluo-3 fluorescence, FDSS 3000)
Format: cell-based
Conditions: C6BU-1 cell transfected with human P2X3 receptor gene
Method: The plate was placed in High-Throughput Screening System FDSS 3000 (Hamamatsu Photonics K.K.). […] Five minutes after, 50 nM ATP solution (50 μL) prepared by dilution with the dilution buffer was dispensed through the built-in automatic dispenser, and the measurement of fluorescence intensity was continued for 3 min. For each well, the specific maximum fluorescence intensity was calculated as the ratio of the maximum fluorescence intensity after addition of the ATP solution to the fluorescence intensity at the starting of the measurement. […] FDSS software (Hamamatsu Photonics K.K.) was used for calculation of the specific maximum fluorescence intensity. IC50 was calculated using Microsoft Excel (Microsoft. Corporation) and XLfit (idbs Ltd.)
The aforementioned in mM, μM and nM are each means mmol/L, μmol/L and nmol/L, respectively.
In tables, μM means μmol/L.

Chain of human P2X3 receptor (P56373 whole entry): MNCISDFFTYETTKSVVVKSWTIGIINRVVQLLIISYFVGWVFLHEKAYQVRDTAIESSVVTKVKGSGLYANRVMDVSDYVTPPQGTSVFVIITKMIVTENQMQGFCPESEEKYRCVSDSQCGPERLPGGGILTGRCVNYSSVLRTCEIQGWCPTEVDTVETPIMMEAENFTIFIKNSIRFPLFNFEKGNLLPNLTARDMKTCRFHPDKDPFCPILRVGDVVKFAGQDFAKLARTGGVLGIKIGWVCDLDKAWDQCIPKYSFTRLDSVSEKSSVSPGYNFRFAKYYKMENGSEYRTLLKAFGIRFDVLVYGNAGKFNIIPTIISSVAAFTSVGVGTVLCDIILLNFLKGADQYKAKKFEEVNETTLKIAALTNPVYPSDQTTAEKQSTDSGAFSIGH

Row | Compound | IC50 [nM]
1 | CC(C)Oc1ccc(Nc2[nH]c(=O)n(C)c(=O)c2Cc2ccc(Cl)cc2)cc1F [I-001] | 901
2 | CC(C)Oc1ccc(Nc2cc(=O)n(Cc3ccc(Cl)cc3)c(=O)n2Cc2ccc(Cl)cc2)cc1Cl [I-005] | 238
3 | COC(=O)C(C)(C)Cn1c(=O)cc(Nc2ccc(OC(C)C)c(Cl)c2)n(Cc2ccc(Cl)cc2)c1=O [I-010] | 10
4 | CC(C)Oc1ccc(Nc2cc(=O)n(CC(C)(C)C(=O)O)c(=O)n2Cc2ccc(Cl)cc2)cc1Cl [I-012] | 6
5 | Cc1ccc(Cc2c(Nc3ccc(OC(C)C)cc3)[nH]c(=O)n(Cc3ccccc3)c2=O)cc1 [I-014] | 404
6 | COC(=O)C(C)(C)Cn1c(=O)cc(Nc2ccc(OC(C)C)c(F)c2)n(Cc2ccc(Cl)cc2)c1=O [I-020] | 28
7 | CC(C)Oc1ccc(Nc2ncc(Cc3ccccc3)c(=O)n2Cc2ccc(Cl)cc2)cc1Cl [I-022] | 147
8 | CC(C)Oc1ccc(Nc2nc(=O)c(Cc3ccccc3)cn2Cc2ccc(Cl)cc2)cc1Cl [I-023, 5-benzyl-1-(4-chlorobenzyl)-2-(3-chloro-4-isopropoxyphenylamino)pyrimidine-4(1H)-one] | 148
9 | CCOC(=O)c1cn(Cc2ccccc2)c(=O)cc1Nc1ccc(OC(C)C)c(Cl)c1 [I-046, 4-(3-chloro-4-isopropoxyphenylamino)-1-benzyl-5-(ethoxycarbonyl)pyridine-2(1H)-one] | 395
10 | CCOC(=O)c1cn(Cc2ccccc2)c(Nc2ccc(OC(C)C)c(Cl)c2)cc1=O [I-049] | 796
11 | CCOC(=O)c1cn(Cc2ccccc2)c(=O)cc1Nc1ccc(OC(C)C)c(Nc2ccc(OC(C)C)c(Cl)c2)c1 [I-061] | 748
12 | CC(C)Oc1ccc(Nc2ccc(Cc3nc(N(C)C)oc(=O)c3Cl)cc2)cc1F [I-063] | 688
13 | CC(C)Oc1ccc(Nc2cc(=O)n(Cc3ccccc3)cc2C(=O)c2ccc(Cl)cc2)cc1Cl [I-065, 4-(3-chloro-4-isopropoxyphenylamino)-1-benzyl-5-(4-chlorobenzoyl)pyridine-2(1H)-one] | 128
14 | CC(C)Oc1ccc(Nc2cc(=O)n(Cc3ccccc3)cc2Cc2ccc(Cl)cc2)cc1Cl [I-067, 4-(3-chloro-4-isopropoxyphenylamino)-1-benzyl-5-(4-chlorobenzyl)pyridine-2(1H)-one] | 310
15 | CC(C)Oc1ccc(Nc2cc(=O)n(Cc3ccccc3)cc2C(O)c2ccc(Cl)cc2)cc1Cl (stereo not drawn) [I-068, 4-(3-chloro-4-isopropoxyphenylamino)-1-benzyl-5-(4-chloro-α-hydroxybenzyl)pyridine-2(1H)-one] | 105
16 | CC(C)Oc1ccc(Nc2oc(Cc3ccccc3)nc2Cc2ccc(Cl)cc2)cc1F [I-070, 4-(4-chlorobenzyl)-2-benzyl-5-(3-fluoro-4-isopropoxyphenylamino)oxazole] | 635
17 | CCNc1ccc(Nc2ccc(OC(C)C)cc2)c(Cc2ccc(Cl)cc2)c1 [I-071, 1-(4-chlorobenzyl)-3-ethylamino-6-(4-isopropoxyphenylamino)benzene] | 502
18 | CCc1cnc(Nc2ccc(OC(C)C)c(F)c2)c(Oc2ccc(C)cc2)n1 [I-072, 5-ethyl-2-(3-fluoro-4-isopropoxyphenylamino)-3-(4-methylphenoxy)pyrazine] | 749
19 | CC(C)Oc1ccc(Nc2cc(=O)n(CC3COC(C)(C)OC3)c(=O)n2Cc2ccc(Cl)cc2)cc1Cl [I-094] | 5

Row | Compound | IC50 [nM]
20 | COC(=O)[C@@H](C)Cn1c(=O)cc(Nc2ccc(OC(C)C)c(Cl)c2)n(Cc2ccc(Cl)cc2)c1=O [I-095] | 16
21 | CC(C)Oc1ccc(Nc2nc(=O)c(/C=C/C(=O)O)cn2Cc2ccc(Cl)cc2)cc1Cl [I-097] | 307
22 | CCOC(=O)/C=C/c1cn(Cc2ccc(Cl)cc2)c(Nc2ccc(OC(C)C)c(Cl)c2)nc1=O [I-098] | 233
23 | CC(C)Oc1ccc(Nc2cc(=O)n(CC(CO)CO)c(=O)n2Cc2ccc(Cl)cc2)cc1Cl [I-099] | 6
24 | COC(=O)CCCn1c(=O)cc(Nc2ccc(OC(C)C)c(Cl)c2)n(Cc2ccc(Cl)cc2)c1=O [I-103] | 14
25 | COC(=O)Cn1c(=O)cc(Nc2ccc(OC(C)C)c(F)c2)n(Cc2ccc(Cl)cc2)c1=O [I-104, 1-(4-chlorobenzyl)-6-(3-fluoro-4-isopropoxyphenylamino)-3-(methoxycarbonylmethyl)pyrimidine-2,4(1H,3H)-dion] | 96
26 | CC(C)Oc1ccc(Nc2cc(=O)n(CC(=O)O)c(=O)n2Cc2ccc(Cl)cc2)cc1F [I-105, 1-(4-chlorobenzyl)-6-(3-fluoro-4-isopropoxyphenylamino)-3-(hydroxycarbonylmethyl)pyrimidine-2,4(1H,3H)-dion] | 412
27 | COC(=O)C(C)(C)Cn1c(=O)cc(Nc2cccc(C(F)(F)F)c2)n(Cc2ccc(Cl)cc2)c1=O [I-107] | 51
28 | COC(=O)C(C)(C)Cn1c(=O)cc(Nc2cccc(C(F)(F)F)n2)n(Cc2ccc(Cl)cc2)c1=O [I-108, 1-(4-chlorobenzyl)-3-(2-methoxycarbonyl-2-methylpropyl)-6-(6-trifluoromethyl-2-pyridylamino)pyrimidine-2,4(1H,3H)-dion] | 61
29 | CC(C)Oc1ccc(Nc2nc(OCCO)c3ccccc3c2C(=O)c2ccc(Cl)cc2)cc1F [I-110, 4-(4-chlorobenzoyl)-3-(3-fluoro-4-isopropoxyphenylamino)-1-(2-hydroxyethoxy)isoquinoline] | 405
30 | CC(C)Oc1ccc(NC2=CC(O)N(CC(=O)NC(CO)CO)C(=O)N2Cc2ccc(Cl)cc2)cc1F (stereo not drawn) [I-111] | 11
31 | CC(C)(CN1C(=O)N(Cc2ccc(Cl)cc2)C(Nc2cccc(C(F)(F)F)c2)=CC1O)C(=O)O (stereo not drawn) [I-113] | 72
32 | CC(C)(Cn1c(=O)cc(Nc2cccc(C(F)(F)F)n2)n(Cc2ccc(Cl)cc2)c1=O)C(=O)O [I-114, 1-(4-chlorobenzyl)-3-(2-hydroxycarbonyl-2-methylpropyl)-6-(6-trifluoromethyl-2-pyridylamino)pyrimidine-2,4(1H,3H)-dion] | 160
33 | CCOC(=O)CCC1=CN(Cc2ccc(Cl)cc2)C(Nc2ccc(OC(C)C)c(Cl)c2)=NC1O (stereo not drawn) [I-115] | 51
34 | CCOC(=O)CCC1CN(Cc2ccc(Cl)cc2)C(Nc2ccc(OC(C)C)c(Cl)c2)=NC1=O (stereo not drawn) [I-116] | 315
35 | CCOC(=O)c1cn(Cc2ccc(Cl)cc2)c(Nc2ccc(OC(C)C)c(Cl)c2)nc1=O [I-125] | 243
36 | CCOC(=O)c1cnc(Nc2ccc(OC(C)C)c(Cl)c2)n(Cc2ccc(Cl)cc2)c1=O [I-126] | 50
37 | CC(C)Oc1ccc(Nc2ncc(C(=O)O)c(=O)n2Cc2ccc(Cl)cc2)cc1Cl [I-129] | 490
38 | CCOC(=O)/C=C/c1cnc(Nc2ccc(OC(C)C)c(Cl)c2)n(Cc2ccc(Cl)cc2)c1=O [I-132, 2-(3-chloro-4-isopropoxyphenylamino)-3-(4-chlorobenzyl)-5-(2-ethoxycarbonylethenyl) pyrimidine-4(3H)-one] | 206

Row | Compound | IC50 [nM]
39 | CC(C)Oc1ccc(Nc2ncc(N3CCOCC3)c(=O)n2Cc2ccc(Cl)cc2)cc1F [I-138, 2-(3-fluoro-4-isopropoxyphenylamino)-3-(4-chlorobenzyl)-5-(morpholino)pyrimidine-4(3H)-one] | 201
40 | CC(C)Oc1ccc(Nc2ncc(/C=C/C(=O)O)c(=O)n2Cc2ccc(Cl)cc2)cc1Cl [I-139, 2-(3-chloro-4-isopropoxyphenylamino)-3-(4-chlorobenzyl)-5-(2-hydroxycarbonylethenyl) pyrimidine-4(3H)-one] | 331
41 | CC(C)Oc1ccc(Nc2nc(=O)c(C(=O)NCCO)cn2Cc2ccc(Cl)cc2)cc1F [I-146, 1-(4-chlorobenzyl)-2-(3-fluoro-4-isopropoxyphenylamino)-5-[N-(2-hydroxyethyl)carbamoyl]pyrimidine-4(1H)-one] | 383
42 | CCOC(=O)c1cn(Cc2ccc(Cl)cc2)c2cc(Nc3ccccc3)ccc2c1=O [I-148, 1-(4-chlorobenzyl)-7-(phenylamino)-3-(ethoxycarbonyl)quinoline-4(1H)-one] | 324
43 | CC(C)Oc1ccc(Nc2nc(=O)c(C(=O)NC(CO)CO)cn2Cc2ccc(Cl)cc2)cc1F [I-150] | 120
44 | CC(C)Oc1ccc(Nc2ncc(C(=O)NCCO)c(=O)n2Cc2ccc(Cl)cc2)cc1F [I-152] | 96
45 | CC(C)Oc1ccc(Nc2ncc(C(=O)NC(CO)CO)c(=O)n2Cc2ccc(Cl)cc2)cc1F [I-153] | 59
46 | CC(C)Oc1ccc(Nc2ncc(C(=O)N(C)CCO)c(=O)n2Cc2ccc(Cl)cc2)cc1F [I-156] | 509
47 | CCOC(=O)/C=C/c1cnc(Nc2ccc(OC(C)C)c(F)c2)n(Cc2ccc(Cl)cc2)c1=O [I-157] | 589
48 | CC(C)Oc1ccc(Nc2ncc(NC(=O)OC(C)(C)C)c(=O)n2Cc2ccc(Cl)cc2)cc1F [I-158] | 20
49 | COC(=O)[C@H](C)NC(=O)c1cnc(Nc2ccc(OC(C)C)c(F)c2)n(Cc2ccc(Cl)cc2)c1=O [I-164] | 18
50 | CNc1ncc(Nc2cccc(C(F)(F)F)c2)c(Cc2ccc(Cl)cc2)n1 [I-190] | 990
51 | COC(=O)[C@@H](C)NC(=O)c1cnc(Nc2ccc(OC(C)C)c(F)c2)n(Cc2ccc(Cl)cc2)c1=O [I-197] | 98
52 | CC(C)Oc1ccc(Nc2ncc(C(=O)N[C@@H](C)C(=O)O)c(=O)n2Cc2ccc(Cl)cc2)cc1F [I-201] | 229
53 | CC(C)Oc1ccc(Nc2ncc(N(C)C(=O)OC(C)(C)C)c(=O)n2Cc2ccc(Cl)cc2)cc1F [I-208] | 50
54 | CC(C)Oc1ccc(Nc2nc(=O)c(N3CCOCC3)cn2Cc2ccc(Cl)cc2)cc1F [I-209] | 397
55 | COC(=O)[C@@H](C)Cn1c(=O)cc(Nc2ccc(OC(C)C)c(C)c2)n(Cc2ccc(Cl)cc2)c1=O [I-212] | 37
56 | COC(=O)[C@@H](C)Cn1c(=O)cc(Nc2ccc(OC(C)C)cn2)n(Cc2ccc(Cl)cc2)c1=O [I-213] | 427
57 | COC(=O)[C@@H](C)Cn1c(=O)cc(Nc2ccc(OC(C)C)cc2)n(Cc2ccc(Cl)cc2)c1=O [I-216] | 105
